Laboratory results published in US8034924B2, “Process for production of crystal of purine nucleoside compound” (Ajinomoto Co., Inc., priority 2007, dated 2011).

Experiment: Storage stability of crystals of 2′,3′-dideoxyinosine (increase of hypoxanthine after storage, HPLC)
Assay type: physicochemical
Conditions: crystals stored at 60° C., at RH75% for 7 days; Table 1
Protocol: In order to examine the storage stability, the obtained crystals were stored at 60° C., at RH75% for 7 days.
The concentration of the phosphate on the surface of the crystals and the amount of hypoxanthine were analyzed in the conditions shown in the following Table 2.

Row | SMILES | Increase of hypoxanthine after storage (%/DDI)
1 | OC[C@@H]1CC[C@H](n2cnc3c(O)ncnc32)O1 [Ex. 3, 2′,3′-dideoxyinosine] | 0.20 %/DDI
2 | OC[C@@H]1CC[C@H](n2cnc3c(O)ncnc32)O1 [Ex. 4, 2′,3′-dideoxyinosine] | 0.54 %/DDI
3 | OC[C@@H]1CC[C@H](n2cnc3c(O)ncnc32)O1 [Comp. Ex. 1, 2′,3′-dideoxyinosine, reference compound] | 2.24 %/DDI
4 | OC[C@@H]1CC[C@H](n2cnc3c(O)ncnc32)O1 [Comp. Ex. 2, 2′,3′-dideoxyinosine, reference compound] | 1.91 %/DDI
5 | OC[C@@H]1CC[C@H](n2cnc3c(O)ncnc32)O1 [Comp. Ex. 4, 2′,3′-dideoxyinosine, reference compound] | 2.20 %/DDI

The remaining lines, values ahead:

Row | Increase of hypoxanthine after storage (%/DDI) | SMILES
6 | 2.21 %/DDI | OC[C@@H]1CC[C@H](n2cnc3c(O)ncnc32)O1 [Comp. Ex. 3, 2′,3′-dideoxyinosine, reference compound]
7 | 0.48 %/DDI | OC[C@@H]1CC[C@H](n2cnc3c(O)ncnc32)O1 [Ex. 2, 2′,3′-dideoxyinosine]
8 | 0.45 %/DDI | OC[C@@H]1CC[C@H](n2cnc3c(O)ncnc32)O1 [Ex. 1, 2′,3′-dideoxyinosine]

Same assay, conditions: crystals stored at 60° C., at RH75% for 7 days; Table 3, phosphate removed by suspending in water vs Example 3

Row | Increase of hypoxanthine after storage (%/DDI) | SMILES
9 | 0.20 %/DDI | OC[C@@H]1CC[C@H](n2cnc3c(O)ncnc32)O1 [Ex. 3, 2′,3′-dideoxyinosine]
10 | 4.32 %/DDI | OC[C@@H]1CC[C@H](n2cnc3c(O)ncnc32)O1 [Comp. Ex. 5, 2′,3′-dideoxyinosine, reference compound]

Same assay, conditions: crystals stored at 60° C., at RH75% for 7 days; Table 4, degree of washing changed per sample

Row | SMILES | Increase of hypoxanthine after storage (%/DDI)
11 | OC[C@@H]1CC[C@H](n2cnc3c(O)ncnc32)O1 [Ex. 6, 2′,3′-dideoxyinosine] | 1.03 %/DDI
12 | OC[C@@H]1CC[C@H](n2cnc3c(O)ncnc32)O1 [Ex. 10, 2′,3′-dideoxyinosine] | 0.97 %/DDI
13 | OC[C@@H]1CC[C@H](n2cnc3c(O)ncnc32)O1 [Ex. 5, 2′,3′-dideoxyinosine] | 1.38 %/DDI
14 | OC[C@@H]1CC[C@H](n2cnc3c(O)ncnc32)O1 [Comp. Ex. 7, 2′,3′-dideoxyinosine, reference compound] | 2.24 %/DDI
15 | OC[C@@H]1CC[C@H](n2cnc3c(O)ncnc32)O1 [Comp. Ex. 9, 2′,3′-dideoxyinosine, reference compound] | 2.21 %/DDI
16 | OC[C@@H]1CC[C@H](n2cnc3c(O)ncnc32)O1 [Comp. Ex. 8, 2′,3′-dideoxyinosine, reference compound] | 2.20 %/DDI

Other lines, results leading:

Row | Increase of hypoxanthine after storage (%/DDI) | SMILES
17 | 0.90 %/DDI | OC[C@@H]1CC[C@H](n2cnc3c(O)ncnc32)O1 [Ex. 11, 2′,3′-dideoxyinosine]
18 | 0.70 %/DDI | OC[C@@H]1CC[C@H](n2cnc3c(O)ncnc32)O1 [Ex. 9, 2′,3′-dideoxyinosine]
19 | 1.91 %/DDI | OC[C@@H]1CC[C@H](n2cnc3c(O)ncnc32)O1 [Comp. Ex. 10, 2′,3′-dideoxyinosine, reference compound]
20 | 2.47 %/DDI | OC[C@@H]1CC[C@H](n2cnc3c(O)ncnc32)O1 [Comp. Ex. 6, 2′,3′-dideoxyinosine, reference compound]
21 | 1.04 %/DDI | OC[C@@H]1CC[C@H](n2cnc3c(O)ncnc32)O1 [Ex. 13, 2′,3′-dideoxyinosine]
22 | 1.19 %/DDI | OC[C@@H]1CC[C@H](n2cnc3c(O)ncnc32)O1 [Ex. 7, 2′,3′-dideoxyinosine]
23 | 1.26 %/DDI | OC[C@@H]1CC[C@H](n2cnc3c(O)ncnc32)O1 [Ex. 12, 2′,3′-dideoxyinosine]
24 | 0.90 %/DDI | OC[C@@H]1CC[C@H](n2cnc3c(O)ncnc32)O1 [Ex. 8, 2′,3′-dideoxyinosine]
